Columns and labels:
Assay in all cases: single sensillum recording, transgenic fly at1 neurons
HvirOR16 = tested on: T1, HvirOR16; design: species or system Heliothis virescens; settings: agonist; mass loaded on filter paper in stimulus cartridge (10 μL in paraffin oil), 300 ms pulse; not a molar concentration
T1 construct: gene OR16; ORF in pVALIUM20, UAS-OR transgene expressed in Drosophila at1 neurons (Or67dGAL4 knock-in), host endogenous Orco; with Odorant receptor coreceptor (Drosophila melanogaster, endogenous in host neuron)

HarmOR16 [1] = target: T2, HarmOR16 (Helicoverpa armigera, UniProt A0A7D5JJ30); settings: agonist; mass loaded on filter paper in stimulus cartridge (10 μL in paraffin oil), 300 ms pulse; not a molar concentration
T2 construct: ORF in pVALIUM20, UAS-OR transgene expressed in Drosophila at1 neurons (Or67dGAL4 knock-in), host endogenous Orco; with Odorant receptor coreceptor (Drosophila melanogaster, endogenous in host neuron)
T2 sequence (A0A7D5JJ30 1-422): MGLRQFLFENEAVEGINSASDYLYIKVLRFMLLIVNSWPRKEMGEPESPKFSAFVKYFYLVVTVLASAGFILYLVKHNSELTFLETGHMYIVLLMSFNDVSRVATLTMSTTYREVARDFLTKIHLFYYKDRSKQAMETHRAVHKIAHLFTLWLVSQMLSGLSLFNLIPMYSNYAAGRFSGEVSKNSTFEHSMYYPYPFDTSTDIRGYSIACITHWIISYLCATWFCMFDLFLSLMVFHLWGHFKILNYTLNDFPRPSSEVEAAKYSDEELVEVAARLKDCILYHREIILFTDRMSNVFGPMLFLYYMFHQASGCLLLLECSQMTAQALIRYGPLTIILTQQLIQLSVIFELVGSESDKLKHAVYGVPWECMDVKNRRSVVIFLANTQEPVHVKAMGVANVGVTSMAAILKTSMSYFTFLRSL
T2 sequence (Q9VNB5 1-486 partner): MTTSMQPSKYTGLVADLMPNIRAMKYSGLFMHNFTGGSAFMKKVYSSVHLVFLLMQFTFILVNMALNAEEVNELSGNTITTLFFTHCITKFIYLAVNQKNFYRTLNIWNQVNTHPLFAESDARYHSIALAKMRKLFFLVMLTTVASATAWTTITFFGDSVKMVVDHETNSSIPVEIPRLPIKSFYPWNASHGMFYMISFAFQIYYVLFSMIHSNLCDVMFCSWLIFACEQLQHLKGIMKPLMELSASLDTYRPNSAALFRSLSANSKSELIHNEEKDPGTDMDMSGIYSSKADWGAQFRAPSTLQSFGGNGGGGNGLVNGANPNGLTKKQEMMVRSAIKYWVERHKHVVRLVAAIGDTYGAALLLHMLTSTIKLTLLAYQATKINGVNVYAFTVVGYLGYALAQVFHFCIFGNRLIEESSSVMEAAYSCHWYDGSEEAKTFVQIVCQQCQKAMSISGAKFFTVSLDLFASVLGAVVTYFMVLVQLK

HarmOR16 [2] = target: T2, HarmOR16; assay type: cell-based; settings: agonist; odorant on filter paper in stimulus cartridge, 300 ms pulse
HvirOR6 = tested on: T3, HvirOR6; design: species or system Heliothis virescens; settings: agonist; mass loaded on filter paper in stimulus cartridge (10 μL in paraffin oil), 300 ms pulse; not a molar concentration
T3 construct: gene OR6; ORF in pVALIUM20, UAS-OR transgene expressed in Drosophila at1 neurons (Or67dGAL4 knock-in), host endogenous Orco; with Odorant receptor coreceptor (Drosophila melanogaster, endogenous in host neuron)

HassOR6 = target: T4, HassOR6 (Helicoverpa assulta, UniProt R4JLZ7); settings: agonist; mass loaded on filter paper in stimulus cartridge (10 μL in paraffin oil), 300 ms pulse; not a molar concentration
T4 construct: gene OR6; ORF in pVALIUM20, UAS-OR transgene expressed in Drosophila at1 neurons (Or67dGAL4 knock-in), host endogenous Orco; with Odorant receptor coreceptor (Drosophila melanogaster, endogenous in host neuron)
T4 sequence (R4JLZ7 1-425): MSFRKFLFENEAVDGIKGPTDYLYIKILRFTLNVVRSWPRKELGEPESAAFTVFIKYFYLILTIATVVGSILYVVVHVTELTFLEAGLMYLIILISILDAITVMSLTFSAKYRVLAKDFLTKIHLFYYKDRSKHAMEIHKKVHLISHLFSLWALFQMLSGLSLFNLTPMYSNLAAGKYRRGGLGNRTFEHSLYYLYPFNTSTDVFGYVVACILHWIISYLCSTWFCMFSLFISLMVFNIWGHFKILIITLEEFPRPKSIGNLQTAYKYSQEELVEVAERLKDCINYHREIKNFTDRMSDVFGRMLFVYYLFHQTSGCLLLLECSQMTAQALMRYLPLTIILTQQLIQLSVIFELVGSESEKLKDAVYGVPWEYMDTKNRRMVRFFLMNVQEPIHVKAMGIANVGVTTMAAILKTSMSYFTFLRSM
T4 sequence (Q9VNB5 1-486 partner): T2 sequence (Q9VNB5 1-486 partner)

HarmOR6 = target: T5, HarmOR6 (Helicoverpa armigera, UniProt R4JSE3); settings: agonist; mass loaded on filter paper in stimulus cartridge (10 μL in paraffin oil), 300 ms pulse; not a molar concentration
T5 construct: gene OR6; ORF in pVALIUM20, UAS-OR transgene expressed in Drosophila at1 neurons (Or67dGAL4 knock-in), host endogenous Orco; with Odorant receptor coreceptor (Drosophila melanogaster, endogenous in host neuron)
T5 sequence (R4JSE3 1-425): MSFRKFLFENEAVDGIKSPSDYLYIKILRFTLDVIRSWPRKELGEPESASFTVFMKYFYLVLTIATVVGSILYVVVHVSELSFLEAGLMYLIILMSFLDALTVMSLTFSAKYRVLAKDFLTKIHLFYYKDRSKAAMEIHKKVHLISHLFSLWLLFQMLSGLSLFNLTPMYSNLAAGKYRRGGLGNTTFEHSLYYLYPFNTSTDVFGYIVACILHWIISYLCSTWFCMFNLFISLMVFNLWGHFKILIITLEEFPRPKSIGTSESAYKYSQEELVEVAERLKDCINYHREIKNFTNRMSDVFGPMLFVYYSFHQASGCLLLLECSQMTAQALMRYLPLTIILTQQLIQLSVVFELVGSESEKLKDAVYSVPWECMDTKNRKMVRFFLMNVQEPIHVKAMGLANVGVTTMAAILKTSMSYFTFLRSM
T5 sequence (Q9VNB5 1-486 partner): T2 sequence (Q9VNB5 1-486 partner)

HvirOR13 = tested on: T6, HvirOR13; design: species or system Heliothis virescens; settings: agonist; mass loaded on filter paper in stimulus cartridge (10 μL in paraffin oil), 300 ms pulse; not a molar concentration
T6 construct: gene OR13; ORF in pVALIUM20, UAS-OR transgene expressed in Drosophila at1 neurons (Or67dGAL4 knock-in), host endogenous Orco; with Odorant receptor coreceptor (Drosophila melanogaster, endogenous in host neuron)

HarmOR13 = target: T7, HarmOR13 (Helicoverpa armigera, UniProt A0A075TD52); settings: agonist; mass loaded on filter paper in stimulus cartridge (10 μL in paraffin oil), 300 ms pulse; not a molar concentration
T7 construct: gene OR13; ORF in pVALIUM20, UAS-OR transgene expressed in Drosophila at1 neurons (Or67dGAL4 knock-in), host endogenous Orco; with Odorant receptor coreceptor (Drosophila melanogaster, endogenous in host neuron)
T7 sequence (A0A075TD52 1-425): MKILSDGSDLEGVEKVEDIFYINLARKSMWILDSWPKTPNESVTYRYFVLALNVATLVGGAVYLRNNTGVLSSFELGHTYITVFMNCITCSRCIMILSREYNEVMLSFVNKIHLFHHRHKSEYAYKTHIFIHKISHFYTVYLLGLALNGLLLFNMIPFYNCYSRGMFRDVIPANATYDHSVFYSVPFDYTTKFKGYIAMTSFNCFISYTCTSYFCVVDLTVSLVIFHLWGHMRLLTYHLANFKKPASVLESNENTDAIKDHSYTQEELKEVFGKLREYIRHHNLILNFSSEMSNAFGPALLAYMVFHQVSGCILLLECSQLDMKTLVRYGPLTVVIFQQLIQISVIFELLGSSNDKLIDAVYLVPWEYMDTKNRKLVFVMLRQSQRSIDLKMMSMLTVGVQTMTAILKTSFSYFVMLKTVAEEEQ
T7 sequence (Q9VNB5 1-486 partner): T2 sequence (Q9VNB5 1-486 partner)

HassOR13 = target: T8, HassOR13 (Helicoverpa assulta, UniProt A0A0B4ZYC6); settings: agonist; mass loaded on filter paper in stimulus cartridge (10 μL in paraffin oil), 300 ms pulse; not a molar concentration
T8 construct: gene OR13; ORF in pVALIUM20, UAS-OR transgene expressed in Drosophila at1 neurons (Or67dGAL4 knock-in), host endogenous Orco; with Odorant receptor coreceptor (Drosophila melanogaster, endogenous in host neuron)
T8 sequence (A0A0B4ZYC6 1-425): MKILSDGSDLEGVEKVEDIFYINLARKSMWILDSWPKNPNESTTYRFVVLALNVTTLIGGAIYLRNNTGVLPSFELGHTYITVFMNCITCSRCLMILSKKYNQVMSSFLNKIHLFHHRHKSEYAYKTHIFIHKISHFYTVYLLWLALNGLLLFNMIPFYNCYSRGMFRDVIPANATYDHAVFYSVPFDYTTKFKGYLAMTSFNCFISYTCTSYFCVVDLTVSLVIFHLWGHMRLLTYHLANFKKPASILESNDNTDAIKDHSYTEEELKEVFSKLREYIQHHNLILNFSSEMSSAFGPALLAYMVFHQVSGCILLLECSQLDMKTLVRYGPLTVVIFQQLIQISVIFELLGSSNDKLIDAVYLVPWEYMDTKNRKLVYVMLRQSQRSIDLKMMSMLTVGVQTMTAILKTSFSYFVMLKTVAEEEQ
T8 sequence (Q9VNB5 1-486 partner): T2 sequence (Q9VNB5 1-486 partner)

Structure (SMILES) | EC50 (HvirOR16) | EC50 (HarmOR16 [1]) | EC50 (HvirOR6) | EC50 (HassOR6) | EC50 (HarmOR6) | further results
CCCC/C=C\CCCCCCCC=O [Z9-14:Ald, (Z)-9-tetradecenal] | – | 0.00126 g | 2.75e-05 g | – | – | –
CCCCCC/C=C\CCCCCCCCO [Z9-16:OH, (Z)-9-hexadecenol] | – | – | – | 5.99e-05 g | 5.84e-05 g | –
CCCC/C=C\CCCCCCCCO [Z9-14:OH] | – | – | 0.000126 g | 9.66e-05 g | 3.85e-05 g | –
CCCC/C=C\CCCCCCCCCC=O [Z11-16:Ald, (Z)-11-hexadecenal] | – | – | – | – | – | EC50 (HvirOR13): 0.000216 g; EC50 (HarmOR13): 0.000213 g; EC50 (HassOR13): 0.000242 g

The next lines start with results.

EC50 (HvirOR16) | EC50 (HarmOR16 [1]) | EC50 (HvirOR6) | EC50 (HassOR6) | EC50 (HarmOR6) | Structure (SMILES) | further results
3.89e-05 g | 7.94e-05 g | – | – | – | CCCC/C=C\CCCCCCCCCCO [Z11-16:OH, (Z)-11-hexadecenol] | –
8.88e-05 g | – | – | – | – | CCCC/C=C\CCCCCCCCCCOC(C)=O [Z11-16:OAc, (Z)-11-hexadecenyl acetate] | single sensillum recording, transgenic fly at1 neurons (HarmOR16 [2]): responded to the sex pheromone components Z9-14:Ald, Z11-16:OH, and Z11-16:OAc

Reference: PMC6125646, “Proceeding From in vivo Functions of Pheromone Receptors: Peripheral-Coding Perception of Pheromones From Three Closely Related Species, Helicoverpa armigera, H. assulta, and Heliothis virescens” (Frontiers in Physiology, 2018)
